Test results: patent publication US9581598B2, “Diagnosis and treatment of brain tumor” (Sanford-Burnham Medical Research Institute, priority 2012, dated 2017)
“Also recorded” adds a separate entry of the source. Where a SMILES comes first, the peptide text is derived from it. The star is where a group is joined. DTPA(central) = O=C(O)CN(CCN(CCN(CC(=O)O)CC(=O)O)CC(=O)*)CC(=O)O; FITC = O=C1OC2(c3ccc(O)cc3Oc3cc(O)ccc32)c2ccc(NC(=S)*)cc21

Tests used:
i.c. U87MG tumor = tested on: i.c. U87MG tumor; design: species or system mice; settings: mouse, in vivo
Procedure: The DTPA conjugated peptides (20 μg per animal) were mixed with 0.2 M NaAc (pH 5) and 5 MBq of ^111Indiumchloride (^111InCl3, Mallinckrodt, Le Petten, Netherlands) per animal was added to the mixture. The total volume of the solution was calculated to be 100 μl/animal. The reaction mixture was incubated for an hour at RT and the radiochemical purity was measured by using an instant thin-layer chromatography (ITLC-SG, Pall Corporation, USA) on a 13×1.5 cm strip using 0.3 M NaCit (pH 5) as a mobile phase. The radiochemical purity of the peptides was 99-100%.
The imaging studies were performed two weeks post U87MG tumor implantation. For SPECT/CT (single photon emission computed tomography-computed tomography) imaging animals were anesthetized with 1-3% isoflurane in N2/O2 at a 70:30 ratio. The radiolabeled peptide (100 μl) was injected into the tail vein followed by SPECT imaging using a combined small animal SPECT/CT (Gamma Medica Inc., Northridge, Calif.) with dual gamma camera modality. Medium energy parallel hole collimators were used in all gamma imaging with a 171/245/[…] keV energy window for ^111In. Planar two-dimensional imaging for all animals was performed at earliest possible time point after injection with 60 s acquisition time/image up to 30 minutes. For 3D imaging total of 64 projections, (120 s/projection) were used. The matrix size was 80×80 in 125×125 mm^2 field of view (FOV). […]
After the last imaging session animals were sacrificed with CO2 and tissue samples were collected. Major organs and tissues (blood, heart, lungs, liver, spleen, left kidney, duodenum, ovaries, fat, muscle, skin, brain and brain tumor) were weighed, and the radioactivity in each organ or tissue sample was measured in an automated gamma counter (Clinigamma, Turku, Finland). The counts obtained were corrected for the background radiation and physical decay, and tissue radioactivity was expressed as percentage of the injected dose per gram of tissue (% ID/g)±SD.

[1] = tested on: HifKO murine astrocytoma cells; test: targeted treatment of tumor bearing mice; format: in vivo; settings: day 14
Procedure: Immunocompromised (Balb/c nu/nu) mice were implanted with HifKO murine astrocytoma cells (Blouw et al. 2003). Treatment with saline (PBS), free chlorambusil (Cbl) and targeted drug (chlorambusil conjugated to CooP peptide; CooP—CPP-Cbl, 5 mg/kg) was started at day 5 post-implantation and continued every second day until day 14.

i.c HIFko astrocytoma = test: tissue localization of fluorescein-labeled peptide after i.v. injection; format: in vivo, mice
Procedure: (§1) Athymic female Balb/c nu-nu mice (4-6 wks) from Taconic Europe were used in all tumor experiments. Establishment of the intracranial tumors has been described (Blouw et al., 2003). In brief, 50 000 HIFko, VEGF+, U87MG, U87-GFP, U87-MDGI-GFP or BT4C tumor cells in phosphate buffered saline (PBS) or DMEM were injected through the skull using a Hamilton syringe (no 84855), 2 mm right from the bregma at the depth of 3 mm in the brain parenchyma. Mice were used for some experiments 10-15 days after tumor cell inoculation. In experiments studying the role of MDGI in tumor progression and invasiveness, mice were used 10-21 days after tumor cell inoculation. To establish subcutaneous tumors, 2-5×10^6 cells were grafted subcutaneously on the abdominal side of the mice (in some experiments) or into the mammary fat pad, in other experiments. All animal studies were conducted according to the guidelines of the Provincial Government of Southern Finland and the protocol was approved by the Experimental Animal Committee.
Intravenously injected fluorescein-labeled peptides ([…]) and antibodies (20 μg/animal) were allowed to circulate for one hour followed by perfusion through the heart with 10 ml of phosphate buffered saline (PBS) and 10 ml of 4% paraformaldehyde (PFA) in PBS. Tumors and organs were excised, PFA-fixed and soaked in 30% sucrose (w/v) overnight. Tissues were frozen in the OCT embedding medium (Tissue-Tek). Sections (5-10 μm) were cut for histological analyses. To detect the in vivo distribution of the fluorescein-labeled peptides, sections were stained with a rabbit anti-FITC antibody (Zymed Laboratories, San Francisco, USA). […] Sections were examined under an inverted fluorescence microscope (Axioplan).

[2] = tested on: MDGI-expressing MDA-MB-231 xenografts; test: homing of fluorescein-labeled peptide after i.v. injection; format: in vivo, mice
Procedure: (§2) Intravenously injected fluorescein-labeled peptides (100 μl of 1 mM solution) and antibodies (20 μg/animal) were allowed to circulate for one hour followed by perfusion through the heart with 10 ml of phosphate buffered saline (PBS) and 10 ml of 4% paraformaldehyde (PFA) in PBS. Tumors and organs were excised, PFA-fixed and soaked in 30% sucrose (w/v) overnight. Tissues were frozen in the OCT embedding medium (Tissue-Tek). Sections (5-10 μm) were cut for histological analyses. To detect the in vivo distribution of the fluorescein-labeled peptides, sections were stained with a rabbit anti-FITC antibody (Zymed Laboratories, San Francisco, USA). To visualize blood vessels, MDGI and tumor cells, sections were stained with the rat anti-mouse CD31 (BD Pharmingen), goat or rabbit anti-MDGI (Santa Cruz Biotechnology, USA), or a rabbit anti-SV40 large T antigen (a kind gift from Dr. Hanahan, ISREC, Switzerland) antibodies followed by the Alexa-594 and Alexa-488 conjugated secondary antibodies (Molecular Probes, Eugene, Oreg., USA). Nuclei were visualized with DAPI (Vector Laboratories, Burlingame). Sections were examined under an inverted fluorescence microscope (Axioplan).
To obtain an MDA-MB-231 breast tumor cell line stably expressing the MDGI as a c-Myc fusion protein, cells were transfected with the pcDNA3-9E10-MDGI plasmid as described herein. […]

[3] = tested on: intracranial U87MG human glioma xenografts; test: as above; format: in vivo, mice; settings: intravenous injection
Procedure: as §1, §2

[4] = tested on: rat BT4C glioma xenografts; test: as above; format: in vivo, mice; settings: intravenous injection
Procedure: as §1, §2

[5] = tested on: orthotopic MDA-MB-231 human breast cancer xenografts; test: as above; format: in vivo, mice; settings: intravenous injection; parental MDA-MB-231
Procedure: as §1, §2

[6] = tested on: astrocytomas overexpressing VEGF; test: as above; format: in vivo, mice; settings: angiogenic vessels
Procedure: as §1, §2

[7] = tested on: tumors established from the HIFko cells implanted subcutaneously; test: as above; format: in vivo, mice; settings: subcutaneous HIFko tumors
Procedure: as §1, §2

## CC(C)C[C@H](NC(=O)CNC(=O)[C@H](CO)NC(=O)[C@H](CC(C)C)NC(=O)CNC(=O)[C@H](CS)NC(=O)[C@H](C)NC(=O)CN(CCN(CC(=O)O)CC(=O)O)CCN(CC(=O)O)CC(=O)O)C(=O)NCC(=O)N[C@H](C(=O)N[C@@H](C)C(N)=O)C(C)C [^111In-CooP, metal not drawn] ({DTPA(central)}-ACGLSGLGVA-NH2)
i.c. U87MG tumor
  tumor half to healthy brain half ratio: up to 20:1
i.c. U87MG tumor; iv, 20 ug
  plasma clearance: rapid

## CC(C)C[C@H](NC(=O)[C@H](C)NC(=O)[C@H](C)NC(=O)[C@@H](NC(=O)[C@H](CS)NC(=O)[C@H](C)NC(=O)CN(CCN(CC(=O)O)CC(=O)O)CCN(CC(=O)O)CC(=O)O)C(C)C)C(=O)N[C@@H](CC(N)=O)C(=O)N[C@@H](C)C(=O)N[C@@H](CC(=O)O)C(=O)NCC(N)=O [^111In-labeled control peptide, NH2-ACVAALNADG-CONH2, metal not drawn, reference compound]
i.c. U87MG tumor
  accumulation in the tumor tissue: No accumulation

## O=C(O)CCCc1ccc(N(CCCl)CCCl)cc1 [chlorambusil]
[1]
  condition of the animals at end of experiment: poor condition of the animals

## FITC-CooP: synthetic CooP peptide conjugated to fluorescein (Ac-K(FITC)ACGLSGLGVA-NH2)
i.c HIFko astrocytoma; 100 μM, 100 μl/animal i.v., 60 minutes circulation
  peptide localization in tumor: accumulated in the tumor islets in the brain
i.c HIFko astrocytoma; i.v.
  peptide-derived fluorescence in the kidneys and the choroid plexus: Some peptide-derived fluorescence was observed
i.c HIFko astrocytoma; i.v., 60 minutes circulation
  peptide in surrounding histologically normal brain or other tissues: not detected

## NH2-ACGLSGLGVA-CONH2 (H-ACGLSGLGVA-NH2) [CooP peptide, core …]
[2]
  homing to tumor: homed with high efficiency
[3]
  homing to tumor: homed efficiently
[4]
  homing to tumor: to a lesser yet detectable extent
[5]
  peptide detected in tumor: No CooP peptide was detected; also recorded: only negligible amount of the peptide was detected
[6]
  homing to tumor: did not home
[7]
  homing to tumor: did not home
